Measurements taken from patent US20240197761A1, “FUCOSYLATION AND IMMUNE MODULATION IN CANCER” (H. LEE MOFFITT CANCER CENTER AND RESEARCH INSTITUTE, INC., priority 2021, published 2024).

Test system: HLA-DRB1 in WM793 and 1205Lu cells
Experiment: Cell surface fucosylation and HLA-DRB1 (flow cytometry), HLA-DRB1 mRNA (qRT-PCR) and protein (IB) in melanoma cells
Assay type: cell-based, human
Settings: 250 μM, 72 h
Excerpt: FIGS. 18A-18F show N-linked fucosylation of HLA-DRB1 at N48 regulates its cell surface localization and is required for tumor suppression and increased TIL abundance. (a) (upper) Amino acid sequence alignments showing conservation of predicted N- and O-linked fucosylation sites in human HLA-DRB1 (N48 and T129) and mouse H2EB1 (N46 and T147). Structural modeling of the HLA-DRB1:HLA-DM (lower left) and CD4:HLA-DRB1:TCR (lower right) complexes. Potential glycosylation sites, N48 and T129, of HLA-DR1 beta chain are shown as sticks. CD4 (cyan), HLA-DRB1 (yellow), antigen peptide (magenta), and TCR (green)(lower right). (b) HLA-DRB1 peptide fragment identified by nano-LC/MS to be fucosylated on N48, with predicted HexNAc(4)Hex(3)Fuc(1) glycan structure shown above. (c) Lectin pull down (LPD) and IB analyses of EV and V5-tagged wild-type HLA-DRB1 (WT)-, HLA-DRB1 N48G (N48G)-, and HLA-DRB1 T129A (T129A)-expressing WM793 cells. (d) DMSO- or fucosyltransferase inhibitor (FUTi)-treated WM793 cells immunofluorescently stained for endogenous HLA-DRB1, KDEL (ER marker), and DAPI (20× magnification). (e) Flow cytometric analysis for relative cell surface fucosylation (upper) and cell surface HLA-DRB1 (upper middle), qRT-PCR analysis of relative HLA-DRB1 mRNA levels (lower middle), and IB analysis of HLA-DRB1 protein levels (lower) in WM793 and 1205Lu cells treated with DMSO (D), 250 μM FUTi (i), or 250 μM L-fuc (LF). (f) Volumetric growth curves for shNT (non-targeting shRNA)+EV (control SW1 tumors)(upper left) or shEB1 tumors reconstituted with EV (upper right), EB1 WT (lower left), or EB1 N46G (lower right) in C3H/HeN mice. Control (grey) or L-fucose supplemented water (red, 100 mM; ▾=initiated supplementation) was provided ad libitum. The tumor growth curves are means±SEM from ≥7 mice per group. *=p<0.05.
FIGS. 19A and 19B show nano-LC/MS spectral identification of fucosylated HLA-DRB1 peptide; and the effects of modulating fucosylation on HLA-DRB1 localization, total protein, and mRNA levels (a) nano-LC/MS/MS spectra showing fucosylated HLA-DRB1 peptide (arrow). (b) Flow cytometric analysis for relative cell surface fucosylation (upper) and cell surface HLA-DRB1 levels (upper middle), qRT-PCR analysis of relative HLA-DRB1 mRNA levels (lower middle), and IB analysis of HLA-DRB1 protein levels (lower) in indicated melanoma cell lines treated with DMSO (D), 250 μM FUTi (i), or 250 μM L-fuc (LF). *=p<0.05.
HLA-DRB1, and PD-L1: Indicated cells were treated for 72 h with DMSO, 250 μM fucosyltransferase inhibitor (FUTi) (Millipore Sigma (St. Louis, MO)), or 250 μM of L-fucose (Biosynth (Oak Terrace, IL)). After 72 h, cells were stained with 0.1 μM PKH26 (Millipore Sigma (St. Louis, MO)) prior to fixation in 4% formaldehyde solution. The cells were stained with anti-HLA-DRB1 and fluorescein AAL, or anti-human or anti-mouse PD-L1 overnight. The following day the cells were washed 3 times prior to adding AlexaFluor 594 donkey anti-rabbit. Cells were washed 3 times and then subject to flow cytometric analyses using a FACSCalibur (BD Biosciences (San Jose, CA)). Samples were analyzed using FlowJo analysis software (BD Biosciences (San Jose, CA)). Median values of DRB1 and AAL were normalized to PKH26 values and statistical analysis was performed using GraphPad Prism.
Cells were lysed on ice in RIPA lysis buffer (25 mM Tris-HCl pH 7.6, 150 mM NaCl, 5 mM EDTA, 1% NP-40 or 1% Triton X-100, 1% sodium deoxycholate, 0.1% SDS in diH20+protease and phosphatase inhibitors (ThermoFisher Scientific (Waltham, MA)), briefly sonicated, pelleted, and the resulting lysates were normalized by protein concentration using DC assay (BioRad Laboratories, (Hercules, CA)). The indicated samples were subjected to (12%) SDS-PAGE and immunoblot analysis using the indicated antibodies. Immunoblot imaging and analysis was performed using either an Odyssey FC scanner and ImageStudio (LiCor Biosciences, Lincoln, NE) or film. […]

SMILES | HLA-DRB1 mRNA and protein levels | cell surface HLA-DRB1 | cell surface fucosylation
CC(=O)OC1O[C@@H](C)[C@@H](OC(C)=O)[C@@H](OC(C)=O)[C@@H]1F (stereo partly drawn) [FUTi, 2F-peracteyl-fucose, reference compound] | remained unchanged | decreased | decreased
C[C@H](O)[C@@H](O)[C@@H](O)[C@H](O)C=O [L-fucose] | remained unchanged | increased | increased
